Laboratory results as given in patent US9062124B2, “GIP-based mixed agonists for treatment of metabolic disorders and obesity” (priority 2008, dated 2015).
*1 amine or outer side, *2 acyl side, *3 side chain or, on linkers, in order; H or OH if unused. Where a SMILES comes first, the peptide text is derived from it. Side-chain parts run from the residue outwards. [ ]: non-standard residue; d: D form. The star is where a group is joined. γGlu = O=C(O)[C@H](CCC(=O)[*:2])N[*:1]; Stearoyl = CCCCCCCCCCCCCCCCCC(=O)*; Palmitoyl = CCCCCCCCCCCCCCCC(=O)*; Aib = CC(C)(N)C(=O)O

Experiments:
[1] = biological target: T1, glucagon receptor (Homo sapiens, UniProt P47871); test: cAMP synthesis functional assay (firefly luciferase reporter in HEK293 cells), glucagon receptor; assay type: cell-based; conditions: for % Relative activity at the Receptor for Glucagon: Table 8
T1 construct: expressed in transfected cells; host or cells: HEK293

[2] = biological target: T2, GLP-1 receptor (Homo sapiens, UniProt P43220); test: cAMP synthesis functional assay (firefly luciferase reporter in HEK293 cells), GLP-1 receptor; assay type: cell-based; conditions: for % Relative activity at the Receptor for GLP-1: Table 8
T2 construct: expressed in transfected cells; host or cells: HEK293

[3] = biological target: T3, GIP receptor (Homo sapiens, UniProt P48546); test: cAMP synthesis functional assay (firefly luciferase reporter in HEK293 cells), GIP receptor; assay type: cell-based; conditions: for % Relative activity at the Receptor for GIP: Table 8
T3 construct: expressed in transfected cells; host or cells: HEK293
T3 sequence (P48546 22-466): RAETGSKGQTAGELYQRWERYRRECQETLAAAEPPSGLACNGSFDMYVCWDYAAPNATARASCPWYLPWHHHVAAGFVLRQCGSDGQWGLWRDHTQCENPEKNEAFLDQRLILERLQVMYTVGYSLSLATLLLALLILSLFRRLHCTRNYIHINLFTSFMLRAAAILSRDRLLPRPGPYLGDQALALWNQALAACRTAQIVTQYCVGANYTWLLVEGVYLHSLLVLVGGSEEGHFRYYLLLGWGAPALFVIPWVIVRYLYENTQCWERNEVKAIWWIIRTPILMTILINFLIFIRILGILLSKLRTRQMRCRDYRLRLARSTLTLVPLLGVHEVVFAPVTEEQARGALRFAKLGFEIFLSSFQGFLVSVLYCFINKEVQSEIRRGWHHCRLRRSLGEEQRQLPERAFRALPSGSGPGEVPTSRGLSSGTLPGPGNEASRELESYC

[4] = Body weight of mice after peptide injection; conditions: DIO mice, 10 nmol/kg; for total change in body weight (weight loss, decrease): Example 41, subcutaneous daily for 7 days, Day 7
[5] = tested on: glucagon receptor, GLP-1 receptor or GIP receptor; test: Agonist profile across receptors assigned from the cAMP reporter assay data; assay type: cell-based; conditions: assigned from the in vitro EC50 data of Tables 1-4
[6] = Table 4, relative to the native hormone
[7] = Table 5, relative to the native hormone
[8] = relative to the standard (Std.) EC50 of the same run

T1 sequence (P47871 26-477): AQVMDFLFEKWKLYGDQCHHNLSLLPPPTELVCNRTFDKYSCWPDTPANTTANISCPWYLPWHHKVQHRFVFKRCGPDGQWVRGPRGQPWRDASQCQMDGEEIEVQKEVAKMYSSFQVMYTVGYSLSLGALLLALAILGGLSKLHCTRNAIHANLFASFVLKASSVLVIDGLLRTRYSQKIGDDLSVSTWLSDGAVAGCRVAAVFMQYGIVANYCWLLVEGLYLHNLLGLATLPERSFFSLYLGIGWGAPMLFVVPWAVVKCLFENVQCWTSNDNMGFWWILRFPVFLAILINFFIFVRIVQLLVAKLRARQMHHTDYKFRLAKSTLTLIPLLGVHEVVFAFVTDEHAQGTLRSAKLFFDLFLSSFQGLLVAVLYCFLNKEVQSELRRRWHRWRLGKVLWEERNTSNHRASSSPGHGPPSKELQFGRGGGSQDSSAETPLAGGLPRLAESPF
T2 sequence (P43220 24-463, species assumed): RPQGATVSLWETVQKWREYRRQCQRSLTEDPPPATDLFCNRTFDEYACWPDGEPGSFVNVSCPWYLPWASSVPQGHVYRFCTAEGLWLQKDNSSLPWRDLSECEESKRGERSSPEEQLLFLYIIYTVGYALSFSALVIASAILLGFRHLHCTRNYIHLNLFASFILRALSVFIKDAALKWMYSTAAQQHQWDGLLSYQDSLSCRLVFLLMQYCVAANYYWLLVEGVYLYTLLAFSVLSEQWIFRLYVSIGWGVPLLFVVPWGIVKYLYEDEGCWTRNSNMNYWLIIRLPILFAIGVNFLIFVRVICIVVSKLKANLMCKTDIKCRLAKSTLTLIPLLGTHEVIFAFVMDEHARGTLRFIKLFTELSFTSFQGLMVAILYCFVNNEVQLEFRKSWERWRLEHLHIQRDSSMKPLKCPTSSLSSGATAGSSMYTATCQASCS

SMILES	Glucagon Receptor relative activity [1, 6]	% Relative activity at the Receptor for Glucagon [1]	GLP-1 Receptor relative activity [2, 6]	% Relative activity at the Receptor for GLP-1 [2]	EC50 ([3]; GIP Receptor EC50, nM, Table 4)	GIP Receptor relative activity [3, 6]	% Relative activity at the Receptor for GIP [3]	total change in body weight (weight loss, decrease) [4]	EC50 ([1]; Glucagon Receptor EC50, cAMP luciferase reporter assay as in Example 16)	% activity at the glucagon receptor [1, 7]	Glucagon Receptor relative activity [1, 8]	% activity at the GLP-1 receptor [2, 7]	GLP-1 Receptor relative activity [2, 8]	EC50 ([3]; GIP Receptor EC50, cAMP luciferase reporter assay as in Example 16)	% activity at the GIP receptor [3, 7]	GIP Receptor relative activity [3, 8]	body weight ([4]; Example 31, subcutaneous daily for 1 week)	receptor activity profile (glucagon / GLP-1 / GIP agonism) [5]
CCCCCCCCCCCCCCCC(=O)N[C@@H](CCC(=O)N[C@@H](CCC(=O)NCCCC[C@H](NC(=O)[C@H](CO)NC(=O)[C@@H]1CCCN1C(=O)[C@@H]1CCCN1C(=O)[C@@H]1CCCN1C(=O)[C@H](C)NC(=O)CNC(=O)[C@H](CO)NC(=O)[C@H](CO)NC(=O)[C@@H]1CCCN1C(=O)CNC(=O)CNC(=O)[C@H](C)NC(=O)[C@H](CC(C)C)NC(=O)[C@H](CC(C)C)NC(=O)[C@H](Cc1c[nH]c2ccccc12)NC(=O)[C@H](CC(N)=O)NC(=O)[C@@H](NC(=O)[C@H](Cc1ccccc1)NC(=O)[C@H](CCC(=O)O)NC(=O)C(C)(C)NC(=O)[C@H](C)NC(=O)[C@H](C)NC(=O)[C@H](CCC(N)=O)NC(=O)[C@H](CCCCN)NC(=O)[C@H](CC(=O)O)NC(=O)[C@H](CC(C)C)NC(=O)[C@H](Cc1ccc(O)cc1)NC(=O)[C@@H](NC(=O)[C@H](CO)NC(=O)[C@H](Cc1ccc(O)cc1)NC(=O)[C@H](CC(=O)O)NC(=O)[C@H](CO)NC(=O)[C@@H](NC(=O)[C@H](Cc1ccccc1)NC(=O)[C@@H](NC(=O)CNC(=O)[C@H](CCC(=O)O)NC(=O)C(C)(C)NC(=O)[C@@H](N)Cc1ccc(O)cc1)[C@@H](C)O)[C@@H](C)O)[C@@H](C)CC)C(C)C)C(N)=O)C(=O)O)C(=O)O [mt-367]	4.11%	4.11%	405.94%	405.94%	0.0014 nM	202.82%	202.82%	~18%										
CCCCCCCCCCCCCCCCCC(=O)NCCCC[C@H](NC(=O)[C@H](CO)NC(=O)[C@@H]1CCCN1C(=O)[C@@H]1CCCN1C(=O)[C@@H]1CCCN1C(=O)[C@H](C)NC(=O)CNC(=O)[C@H](CO)NC(=O)[C@H](CO)NC(=O)[C@@H]1CCCN1C(=O)CNC(=O)CNC(=O)[C@H](C)NC(=O)[C@H](CC(C)C)NC(=O)[C@H](CC(C)C)NC(=O)[C@H](Cc1c[nH]c2ccccc12)NC(=O)[C@H](CC(N)=O)NC(=O)[C@@H](NC(=O)[C@H](Cc1ccccc1)NC(=O)[C@H](CCC(=O)O)NC(=O)C(C)(C)NC(=O)[C@H](C)NC(=O)[C@H](C)NC(=O)[C@H](CCC(N)=O)NC(=O)[C@H](CCCCN)NC(=O)[C@H](CC(=O)O)NC(=O)[C@H](CC(C)C)NC(=O)[C@H](Cc1ccc(O)cc1)NC(=O)[C@@H](NC(=O)[C@H](CO)NC(=O)[C@H](Cc1ccc(O)cc1)NC(=O)[C@H](CC(=O)O)NC(=O)[C@H](CO)NC(=O)[C@@H](NC(=O)[C@H](Cc1ccccc1)NC(=O)[C@@H](NC(=O)CNC(=O)[C@H](CCC(N)=O)NC(=O)C(C)(C)NC(=O)[C@@H](N)Cc1ccc(O)cc1)[C@@H](C)O)[C@@H](C)O)[C@@H](C)CC)C(C)C)C(N)=O [mt-279] (H-Y[Aib]QGTFTSDYSIYLDKQAA[Aib]EFVNWLLAGGPSSGAPPPSK(Stearoyl)-NH2; N-terminus assumed)									6.9 pM	733%	733.33%	420%	419.57%	0.0045 nM	527%	526.67%	caused significant weight loss in the mice	exhibited activity at the GIP, GLP-1, and glucagon receptors
CCCCCCCCCCCCCCCC(=O)N[C@@H](CCC(=O)N[C@@H](CCC(=O)NCCCC[C@H](NC(=O)[C@H](CC(=O)O)NC(=O)[C@H](CO)NC(=O)[C@@H](NC(=O)[C@H](Cc1ccccc1)NC(=O)[C@@H](NC(=O)CNC(=O)[C@H](CCC(=O)O)NC(=O)C(C)(C)NC(=O)[C@@H](N)Cc1ccc(O)cc1)[C@@H](C)O)[C@@H](C)O)C(=O)N[C@@H](CO)C(=O)N[C@H](C(=O)N[C@@H](Cc1ccc(O)cc1)C(=O)N[C@@H](CC(C)C)C(=O)N[C@@H](CC(=O)O)C(=O)N[C@@H](CCCCN)C(=O)N[C@@H](CCC(N)=O)C(=O)N[C@@H](C)C(=O)N[C@@H](C)C(=O)NC(C)(C)C(=O)N[C@@H](CCC(=O)O)C(=O)N[C@@H](Cc1ccccc1)C(=O)N[C@H](C(=O)N[C@@H](CC(N)=O)C(=O)N[C@@H](Cc1c[nH]c2ccccc12)C(=O)N[C@@H](CC(C)C)C(=O)N[C@@H](CC(C)C)C(=O)N[C@@H](C)C(=O)NCC(=O)NCC(=O)N1CCC[C@H]1C(=O)N[C@@H](CO)C(=O)N[C@@H](CO)C(=O)NCC(=O)N[C@@H](C)C(=O)N1CCC[C@H]1C(=O)N1CCC[C@H]1C(=O)N1CCC[C@H]1C(=O)N[C@@H](CO)C(=O)N[C@@H](CCCCN)C(N)=O)C(C)C)[C@@H](C)CC)C(=O)O)C(=O)O [mt-369] (H-Y[Aib]EGTFTSDK([γGlu-γGlu-Palmitoyl])SIYLDKQAA[Aib]EFVNWLLAGGPSSGAPPPSK-NH2; N-terminus assumed)	1.54%	1.54%	385.05%	385.05%	0.0014 nM	204.26%	204.26%	~25%										
